Consider 7 compounds from patent US20100056526A1, “HETEROMONOCYCLIC COMPOUND AND USE THEREOF” (Takeda Pharmaceutical Company Limited, priority 2006, published 2010).

Molecules are shown by their SMILES.

One experiment has as its target T1, human AT1 receptor (Homo sapiens, UniProt P30556).
T1 construct: expressed in transfected cells; host or cells: CHO-K1
T1 sequence (P30556 1-359): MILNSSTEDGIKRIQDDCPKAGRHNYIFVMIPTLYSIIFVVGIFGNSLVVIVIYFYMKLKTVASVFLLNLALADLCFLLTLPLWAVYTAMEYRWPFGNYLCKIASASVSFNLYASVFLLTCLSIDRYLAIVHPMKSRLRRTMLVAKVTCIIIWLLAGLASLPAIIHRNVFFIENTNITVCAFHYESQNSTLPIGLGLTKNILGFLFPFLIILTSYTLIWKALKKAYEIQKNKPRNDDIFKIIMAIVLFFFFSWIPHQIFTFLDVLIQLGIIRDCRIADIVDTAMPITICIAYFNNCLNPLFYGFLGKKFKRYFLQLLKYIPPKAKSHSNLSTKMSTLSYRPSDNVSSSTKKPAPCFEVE
Kind of experiment: Binding assay using human AT1 receptor-expressing CHO-K1 cell membrane fraction ([125I]-angiotensin II). The conditions noted are these: 22.5 pM [125I]-angiotensin II, 9 μg AT1 membrane, 1 hr room temperature; read-out: AT1 receptor binding inhibitory action (IC50 (nM)). The essentials:
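Radioligand displacement: test compound competed with [125I]-angiotensin II (22.5 pM) on stable CHO-K1 AT1 membrane fraction, 1 hr, room temperature, Tris pH 7.4/MgCl2 buffer ± 0.3 mg/mL BSA. Filtration then scintillation counting; 1 μM CV-11974 defined nonspecific binding. Values are IC50s.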

A further experiment deals with T2, PPARγ (Homo sapiens, UniProt P37231).
T2 construct: expressed in transfected cells; host or cells: CHO-K1
T2 sequence (P37231 1-477 isoform P37231-2): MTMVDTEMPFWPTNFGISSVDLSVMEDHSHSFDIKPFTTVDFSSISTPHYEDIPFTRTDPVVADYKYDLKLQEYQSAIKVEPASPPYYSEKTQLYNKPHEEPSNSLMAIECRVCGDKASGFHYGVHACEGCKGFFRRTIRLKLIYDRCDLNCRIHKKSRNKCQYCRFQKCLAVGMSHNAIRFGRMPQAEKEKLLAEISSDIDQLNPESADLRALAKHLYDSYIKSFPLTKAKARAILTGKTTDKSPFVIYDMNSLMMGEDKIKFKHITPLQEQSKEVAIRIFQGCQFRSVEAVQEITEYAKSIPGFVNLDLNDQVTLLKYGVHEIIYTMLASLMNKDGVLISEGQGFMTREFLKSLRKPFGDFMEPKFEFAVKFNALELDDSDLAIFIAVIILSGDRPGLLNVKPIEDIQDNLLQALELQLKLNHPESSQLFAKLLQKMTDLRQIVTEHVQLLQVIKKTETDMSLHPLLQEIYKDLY
T2 sequence (P19793 1-462 partner): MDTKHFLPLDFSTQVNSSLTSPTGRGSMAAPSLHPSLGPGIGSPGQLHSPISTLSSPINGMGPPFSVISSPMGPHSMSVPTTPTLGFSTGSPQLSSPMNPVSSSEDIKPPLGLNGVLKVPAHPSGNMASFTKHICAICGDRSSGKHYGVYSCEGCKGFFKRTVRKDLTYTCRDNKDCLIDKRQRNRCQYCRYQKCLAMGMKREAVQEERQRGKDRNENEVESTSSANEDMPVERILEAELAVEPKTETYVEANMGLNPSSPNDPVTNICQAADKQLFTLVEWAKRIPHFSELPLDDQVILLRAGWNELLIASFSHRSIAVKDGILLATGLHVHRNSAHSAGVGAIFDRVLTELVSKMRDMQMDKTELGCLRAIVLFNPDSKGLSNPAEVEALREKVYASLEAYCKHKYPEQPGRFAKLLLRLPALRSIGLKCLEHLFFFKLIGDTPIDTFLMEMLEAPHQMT
Kind of experiment: Evaluation of PPARγ activating action (luciferase reporter in PPARγ:RXRα:4ERPP/CHO-K1 cells). The class given is cell-based. The conditions noted are these: CHO-K1, 24 h; test compound 10^−6 M; luciferase activity relative to control compound X (1 μM) = 100%, non-administration group = 0%; read-out: PPARγ activating action (activation % (10^−6 M)). An outline of the steps: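 Activity is expressed as percent, where vehicle gives 0% and 1 μM compound X gives 100%, based on luciferase luminescence. Reporter CHO-K1 cells co-expressing PPARγ:RXRα with a 4ERPP-driven luciferase were incubated with test compound for one day at 37 °C in medium with 0.1% fatty acid-free BSA.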

Usually IC50 stands for the midpoint of a concentration-inhibition curve. For `CCCCc1nc(C)n(CCc2ccc(OC)cc2)c(=O)c1Cc1ccc(-c2ccccc2-c2noc(=O)[nH]2)cc1` [Example 94, 6-butyl-3-[2-(4-methoxyphenyl)ethyl]-2-methyl-5-{[2′-(5-oxo-4,5-dihydro-1,2,4-oxadiazol-3-yl)biphenyl-4-yl]methyl}pyrimidin-4(3H)-one], at human AT1 receptor, the IC50 is 1.8 nM. The activation at 1 µM at PPARγ worked out at 41.5%.

`CCCc1nc(CC)c(Oc2ccc3c(c2)OCO3)c(=O)n1Cc1ccc(-c2ccccc2-c2noc(O)n2)cc1` [Example 485, 5-(1,3-benzodioxol-5-yloxy)-6-ethyl-3-{[2′-(5-oxo-4,5-dihydro-1,2,4-oxadiazol-3-yl)biphenyl-4-yl]methyl}-2-propylpyrimidin-4(3H)-one]: on human AT1 receptor, the IC50 amounted to 2 nM. On PPARγ, the activation at 1 µM is 23.5%.

On to `CCCc1nc(C)n(-c2ccc(OC3CCC3)c(F)c2)c(=O)c1Cc1ccc(-c2ccccc2-c2noc(=O)[nH]2)cc1` [Example 318, 3-[4-(cyclobutyloxy)-3-fluorophenyl]-2-methyl-5-{[2′-(5-oxo-4,5-dihydro-1,2,4-oxadiazol-3-yl)biphenyl-4-yl]methyl}-6-propylpyrimidin-4(3H)-one], for which, on human AT1 receptor, the IC50 came to 1.8 nM. Further, the activation at 1 µM at PPARγ worked out at 19.2%.

Turning to `CCCc1nc(CC)n(-c2ccc(OC3CCC(=O)CC3)cc2)c(=O)c1Cc1ccc(-c2ccccc2-c2noc(=O)[nH]2)cc1` [Example 416, 2-ethyl-3-{4-[(4-oxocyclohexyl)oxy]phenyl}-5-{[2′-(5-oxo-4,5-dihydro-1,2,4-oxadiazol-3-yl)biphenyl-4-yl]methyl}-6-propylpyrimidin-4(3H)-one], the half-inhibitory concentration (IC50) on human AT1 receptor was 1.2 nM. Moreover, the activation at 1 µM on PPARγ came to 53.5%.

With `CCCc1nc(C)c(-c2ccc(OCC3CC3)nc2)c(=O)n1Cc1ccc(-c2ccccc2-c2noc(=O)[nH]2)cc1F` [Example 501, 5-[6-(cyclopropylmethoxy)pyridin-3-yl]-3-{[3-fluoro-2′-(5-oxo-4,5-dihydro-1,2,4-oxadiazol-3-yl)biphenyl-4-yl]methyl}-6-methyl-2-propylpyrimidin-4(3H)-one], the concentration for half-maximal inhibition (IC50) at human AT1 receptor came out at 2.6 nM. Further, on PPARγ, the activation at 1 µM is 31.8%.

In the case of `CCCc1nc(C)n(-c2ccc3c(c2)CCC(C)(C)O3)c(=O)c1Cc1ccc(-c2ccccc2-c2noc(=O)[nH]2)cc1` [Example 131, 3-(2,2-dimethyl-3,4-dihydro-2H-chromen-6-yl)-2-methyl-5-{[2′-(5-oxo-4,5-dihydro-1,2,4-oxadiazol-3-yl)biphenyl-4-yl]methyl}-6-propylpyrimidin-4(3H)-one], the IC50 on human AT1 receptor was found to be 2.2 nM. For the same compound, the activation at 1 µM at PPARγ was 34.2%.

Turning to `CCCCc1nc(COC)n(CC(C)(C)C)c(=O)c1Cc1ccc(-c2ccccc2-c2noc(=O)[nH]2)cc1` [Example 51, 6-butyl-3-(2,2-dimethylpropyl)-2-(methoxymethyl)-5-{[2′-(5-oxo-4,5-dihydro-1,2,4-oxadiazol-3-yl)biphenyl-4-yl]methyl}pyrimidin-4(3H)-one], the IC50 at human AT1 receptor was 1.5 nM. Further, the activation at 1 µM at PPARγ came to 19.6%.
